What all share (assay type): cell-based
In assay [1] the test system is Human primary melanocytes. Put plainly: Melanin Content Assay (MCA). The following applies: for inhibition at 5000 µM / inhibition at 10000 µM: Homo sapiens, Melanocyte, 72 hours, vs untreated cells, read-out: % Inhibition in Melanin Synthesis (Mean ± SD); for inhibition at 5000 µM: 5 mM; for inhibition at 10000 µM: 10 mM. The method, then: Human primary melanocytes were grown in melanocytes growth medium (MGM) with human melanocyte growth supplement. 500 μL/well (5×10^4 cells/well) of this solution was plated in a 24 wells plate and incubated in an incubator (Thermo Scientific, Model 3111) at 37° C. with 5% CO2 atmosphere. After 24 hours of incubation, cell cultures were treated with the lead actives dissolved in water. The control was cells treated with the vehicle (water) alone. The cells were again incubated for 72 hours in an incubator (Thermo Scientific, Model 3111; conditions: 5% CO2, at 37° C.). At the end of the incubation the culture medium was replaced with 120μl/well of MCA reagent ([…] DMSO in 1N NaOH) and incubated for 1 hour at 60° C. in a shaker incubator. The supernatant was then transferred to a 384 well plate. The absorbance was measured spectrophotometric at 405 nm with a micro plate reader (GEnios Pro, Tecan). The spectrophotometric OD at 405 nm for untreated cells (NO active) was considered as 100% melanin content. In comparison to the untreated cells, the percentage inhibition of the treated cell samples were calculated.

Assay [2] has as its system human primary melanocytes and HaCat keratinocytes. Put plainly: Melanosome Transfer Assay (MTA), Example 2. The following applies: 5 mM, 72 hours co-culture, read-out: % inhibition in keratinocytes containing melanosome (Mean ± SD). The protocol: 1.3×10^4 cells of human primary melanocytes (C-202-5C, Lonza) prepared in culture medium (MGM:KGM=1:1) and 2.6×10^4 HaCat keratinocytes prepared in culture medium (MGM:KGM=1:1) were mixed together and plated in a 48 well plate and incubated in an tissue culture incubator (Thermo Scientific, Model 3111) at 37° C. with 5% CO2 atmosphere. After 4 hours of incubation, co-cultures were treated (added) with the samples and again incubated for 72 hours in the same incubator under the same conditions. After culturing for required period (72 hours), the cells were prepared for flow cytometry analysis by following the procedure as set out below: • 1. […]
FACS (Florescence activated cell sorter) was prepared by adding 0.1% Saponin and >0.05% (0.05% wt/volume) Fetal Bovine serum in PBS mixed with Alexa 488 conjugated goat anti-Trp1 antibody (TRP1 Alexa 488 (TRP1, tyrosinase related protein is an specific melanosome marker protein, Santacruz, catalog No: sc-10443) (1 μL/100 μL) and anti-pan cytokeratin antibody (pan cytokeratin, cytokeratin is a specific marker for keratinocytes) PE, Santacruz, catalog No: sc-8018) (1 μL/100 μL). […] The cell pellets were suspended in PBS and transferred to round bottom 96 wells plate and analysed by flow cytometry (BD Biosciences, Model—BD Facscalibur with BD HTS) Calculation of Melanosome Transfer (% Transfer): […]

Assay [3] has the same test system. Put plainly: Melanosome Transfer Assay (MTA), Example 3. The following applies: 72 hours co-culture; for % Inhibition in melanosome transfer: 15 mM; for inhibition at 5000 µM / inhibition at 10000 µM: Homo sapiens, HaCaT; for inhibition at 5000 µM: 5 mM; for inhibition at 10000 µM: 10 mM. The method, then:
1.3×10^4 cells of human primary melanocytes (C-202-5C, Lonza) prepared in culture medium (MGM:KGM=1:1) and 2.6×10^4 HaCat keratinocytes prepared in culture medium (MGM:KGM=1:1) were mixed together and plated in a 48 well plate and incubated in an tissue culture tissue culture incubator (Thermo Scientific, Model 3111) at 37° C. with 5% CO2 atmosphere. After 4 hours of incubation, co-cultures were treated with the samples and again incubated for 72 hours in the same incubator under the same conditions. After culturing for required period (72 hours), the cells were prepared for flow cytometry analysis by following the procedure as set out below: • 1. Cells were isolated from 48 wells plate into a V-bottom plate (Torson, 941396) with 200 μl of trypsin EDTA buffer and the trypsin activity was neutralized with 200 μl of trypsin neutralizer and pelleted down to 350 g using a cold centrifuge (Plasto Crafts, Model no: Roat 4R-V/FM). • 2. To the pellet, 100 μl of 1% para-formaldehyde was added and incubated for 10 minutes on ice. • 3. Cells were then centrifuged (1000 G) with 100 μl of phosphate buffer saline (PBS) for 10 minutes and the pellet was used for staining with a solution as stated in below step 4. The PBS was prepared by adding 4 g sodium chloride, 0.1 g potassium chloride, 0.58 g disodium hydrogen phosphate and 0.1 g potassium dihydrogen phosphate into 500 ml of autoclaved Mili-Q water.
FACS buffer (Florescence activated cell sorter) was prepared by adding 0.1% Saponin and >0.05% (0.05% wt/volume) Fetal Bovine serum in PBS mixed with Alexa 488 conjugated goat anti-Trp1 antibody (TRP1 Alexa 488 (TRP1, tyrosinase related protein is an specific melanosome marker protein, Santacruz, catalog No: sc-10443) (1 μL/100 μL) and anti-pan cytokeratin antibody (pan cytokeratin, cytokeratin is a specific marker for keratinocytes) PE, Santacruz, catalog No: sc-8018) (1 μL/100 μL). The above mention FACS buffer was added to the pellet in each well (100 μL/well) and incubated for 60 minutes on ice. • 4. The cells were then washed with PBS and centrifuged down to ˜1000 G using a cold centrifuge (Plasto crafts, Roat 4R-V/FM) • 5. The cell pellets were suspended in PBS and transferred to round bottom 96 wells plate and analyzed by flow cytometry (BD Biosciences, Model—BD Facs calibur with BD HTS) Calculation of Melanosome Transfer (% Transfer):
Keratinocytes containing transferred melanosomes were detected by flow cytometry analysis.
The % transfer in untreated cells (NO active) was considered as 100%. In comparison to the untreated cells, the percentage transfer of the treated cell samples were calculated.

Two compounds from patent US10952952B2, “Skin lightening composition” (Conopco, Inc., priority 2015, dated 2021) can be followed below.

By inhibition is commonly meant the change of the read-out against control, counted positive when it falls.

In the case of `NC(=O)c1cccnc1` [Niacinamide, pyridine-3-carboxamide], in assay [1], the inhibition at 5000 µM was 3 ± 0.4% and the inhibition at 10000 µM stood at 8 ± 2.3%. Moreover, in assay [1] (niacinamide by itself, at 5 mM and 10 mM), the “reduction of melanin content in primary human melanocytes” value is listed as “modest reduction”. Also, the inhibition at 5000 µM in assay [2] is 15.1 ± 0.4%. Also, in assay [3], the “% Inhibition in melanosome transfer” value is given as “cell death”, the inhibition at 5000 µM worked out at 16.5% and the inhibition at 10000 µM amounted to 25%.
With `NC(=O)c1ccccn1` [Picolinamide, pyridine 2-carboxamide], in assay [1], the inhibition at 5000 µM is 14 ± 0.9% and the inhibition at 10000 µM amounted to 23 ± 3.3%. In assay [3], the “% Inhibition in melanosome transfer” value is given as “cell death”, the inhibition at 5000 µM is -8% and the inhibition at 10000 µM turned out to be 18%.
